Results: patent publication US20190225650A1, “PEPTIDOMIMETIC MACROCYCLES AND USE THEREOF IN REGULATING HIF1ALPHA” (AILERON THERAPEUTICS, INC., priority 2013, published 2019)
Bridge positions count the residues as written; N and C are the ends. Square brackets hold non-standard residues; d marks the D form. Peptide text beside a SMILES is read from it. R8 = C=CCCCCCC[C@@](C)(N)C(=O)O; S5 = C=CCCC[C@](C)(N)C(=O)O; Nle = CCCC[C@H](N)C(=O)O

target: T1, flag-tagged HIF1α (AA 786-826) / His6-tagged p300 (AA 323-423) complex (Homo sapiens, UniProt Q09472); experiment: HIF1α p300 displacement assay (TR FRET, +CHAPS); assay type: binding; conditions: read-out: IC50 (nM) (HIF1α_p300 Displacement + CHAPS)
T1 construct: His6-tagged p300 (AA 323-423); made in house; host or cells: E. coli (pETDuet vector)
Method: The ability of peptides to displace HIF1α c-terminal trans-activation domain from p300-CH was measured by a TR FRET assay. A complex of flag-tagged HIF1α (AA 786-826) and His6-tagged p300 (AA 323-423) was co-expressed using pETDuet vector (EMDMillipore, Bellrica Mass.) and purified from E. coli in the presence of 0.1 mM ZnSO4. The complex was diluted to 300 nM final in complete assay media and competitor peptides were added. The complete assay media contained 150 mM NaCl (Sigma +S5150 or equivalent), 20 mM HEPES pH 7.4 (Boston Bioproducts, Ashland, Mass.; #BB-2076), 7.5 mM CHAPS (Thermo #28300 or equivalent), and 1 mM DTT. Protein and peptide were incubated at room temperature for 1 hour before the addition of anti-Flag-K and anti-6×HIS-D2 (CisBio, Bedford Mass.) HTRF reconstitution buffer (50 mM Phosphate pH 7, 0.8 Potassium Flouride, BSA 0.2%)^1 to a final concentration of 0.5 μM and 4 nM respectively. The reaction continued for an additional two hours at room temperature. The reaction was read on a TECAN F500 plate reader with settings recommended by CisBio. The ratio of donor to acceptor fluorescence was calculated. The resulting data was analyzed with Graphpad Prism 5.0. IC50 values were calculated for both proteins using the One Site Fit-LogIC50 equation and presented in the column “IC50 (nM) (HIF1α_p300 Displacement+CHAPS)” of Table 6. ^1 Cisbio USA, Bedford, Mass.; 61HISDLB (lot 007A), 61FG2KLB (024A), HTRF Buffer (62RB3RDF)

| SMILES | IC50 |
| --- | --- |
| CCCC[C@H](NC(=O)[C@H](CCC(=O)O)NC(=O)[C@@H](NC(=O)[C@@H](NC(=O)[C@H](CC(C)C)NC(=O)[C@]1(C)CCCC=CCCC[C@](C)(NC(=O)[C@H](CCC(=O)O)NC(=O)[C@H](CC(=O)O)NC(=O)[C@@H](NC(=O)[C@H](Cc2ccccc2)NC(=O)[C@H](CCCCN)NC(C)=O)[C@@H](C)CC)C(=O)N[C@@H](C(C)C)C(=O)N[C@@H](CC(C)C)C(=O)N[C@@H](CCCC)C(=O)N1)C(C)C)[C@@H](C)CC)C(=O)N[C@@H](C)C(=O)N[C@@H](CC(C)C)C(=O)N[C@@H](CCCCN)C(N)=O [SP-136] (Ac-KFIDE[S5]VL[Nle][S5]LVIE[Nle]ALK-NH2; staple 6-10) | > 700 nM |
| CSCC[C@@H]1NC(=O)[C@H](CC(C)C)NC(=O)[C@H](C(C)C)NC(=O)[C@](C)(NC(=O)[C@H](CCC(=O)O)NC(=O)[C@@H](NC(=O)[C@H](CC(C)C)NC(C)=O)[C@@H](C)O)CCCCCCC=CCCC[C@@](C)(C(=O)N[C@@H](CO)C(=O)N[C@@H](C)C(=O)N[C@@H](C)C(N)=O)NC(=O)[C@H](C(C)C)NC(=O)[C@H](CC(C)C)NC(=O)[C@H](CO)NC1=O [SP-181] (Ac-LTE[R8]VLMSLV[S5]SAA-NH2; staple 4-11) | > 700 nM |
| CCCC[C@H](NC(=O)[C@H](CC(C)C)NC(=O)[C@@H](NC(=O)[C@H](C)NC(=O)[C@H](CCC(=O)O)NC(=O)[C@H](C)NC(=O)[C@@H](NC(=O)[C@H](Cc1ccccc1)NC(C)=O)[C@@H](C)CC)C(C)C)C(=O)N[C@@]1(C)CCCC=CCCC[C@@](C)(C(=O)N[C@@H](CCCC)C(=O)N[C@@H](C)C(=O)N[C@@H](CC(C)C)C(=O)N[C@@H](CC(=O)O)C(=O)N[C@@H](C)C(=O)N[C@H](C(N)=O)[C@@H](C)CC)NC(=O)[C@H]([C@@H](C)CC)NC(=O)[C@H](C(C)C)NC(=O)[C@H](CC(C)C)NC1=O [SP-222] (Ac-FIAEAVL[Nle][S5]LVI[S5][Nle]ALDAI-NH2; staple 9-13) | 200 to 400 nM |
| CCCC[C@H](NC(=O)[C@H](CC(C)C)NC(=O)[C@@H](NC(=O)[C@H](CCC(=O)O)NC(=O)[C@H](CCC(=O)O)NC(=O)[C@H](CC(=O)O)NC(=O)[C@@H](NC(=O)[C@H](CC(N)=O)NC(=O)[C@@H](NC(=O)[C@H](CCC(N)=O)NC(=O)[C@H](CC(=O)O)NC(=O)[C@H](CC(C)C)NC(=O)[C@H](C)NC(=O)[C@H](CCCNC(=N)N)NC(=O)[C@]1(C)CCCC=CCCC[C@](C)(NC(=O)[C@H](CCC(N)=O)NC(=O)[C@H](CC(C)C)NC(=O)[C@H](CC(C)C)NC(C)=O)C(=O)N[C@@H](CCC(=O)O)C(=O)N[C@@H](CCC(=O)O)C(=O)N[C@@H](CC(C)C)C(=O)N1)C(C)C)[C@@H](C)CC)C(C)C)C(=O)N[C@@]1(C)CCCC=CCCC[C@@](C)(C(=O)N[C@@H](CCCC)C(=O)N[C@@H](C)C(=O)N[C@@H](CC(C)C)C(N)=O)NC(=O)[C@H]([C@@H](C)CC)NC(=O)[C@H](C(C)C)NC(=O)[C@H](CC(C)C)NC1=O [SP-370] (Ac-LLQ[S5]EEL[S5]RALDQVNIDEEVL[Nle][S5]LVI[S5][Nle]AL-NH2; staple 4-8, 23-27) | > 700 nM |
| CCCC[C@H](NC(=O)[C@]1(C)CCCC=CCCC[C@](C)(NC(=O)[C@H](CCCC)NC(=O)[C@H](CC(C)C)NC(=O)[C@@H](NC(=O)[C@H](C)NC(=O)[C@H](C)NC(=O)[C@H](C)NC(=O)[C@@H](NC(=O)[C@H](CC(N)=O)NC(=O)[C@@H](NC(=O)[C@]2(C)CCCC=CCCCCCC[C@@](C)(NC(=O)[C@H](C)NC(=O)CNC(=O)[C@H](CCC(N)=O)NC(=O)[C@H](CC(C)C)NC(=O)[C@H](CC(C)C)NC(C)=O)C(=O)N[C@@H](CC(C)C)C(=O)N[C@@H](CC(C)C)C(=O)N[C@@H](CCCNC(=N)N)C(=O)N[C@@H](C)C(=O)N[C@@H](CC(C)C)C(=O)N[C@@H](C)C(=O)N2)C(C)C)[C@@H](C)CC)C(C)C)C(=O)N[C@@H](CC(C)C)C(=O)N[C@@H](C(C)C)C(=O)N[C@@H]([C@@H](C)CC)C(=O)N1)C(N)=O [SP-348] (Ac-LLQGA[R8]LLRALA[S5]VNIAAAVL[Nle][S5]LVI[S5][Nle]-NH2; staple 6-13, 23-27) | > 700 nM |
| CC[C@H](C)[C@H](NC(=O)[C@H](Cc1ccccc1)NC(C)=O)C(=O)N[C@@H](CC(=O)O)C(=O)N[C@@H](CCC(=O)O)C(=O)N[C@]1(C)CCCCCCC=CCCC[C@@](C)(C(=O)N[C@@H](CCC(=O)O)C(=O)N[C@@H](CCSC)C(=O)N[C@@H](C)C(=O)N[C@@H](C)C(=O)N[C@@H](C)C(N)=O)NC(=O)[C@H](C(C)C)NC(=O)[C@H](CC(C)C)NC(=O)[C@H](CO)NC(=O)[C@H](CCSC)NC(=O)[C@H](CC(C)C)NC(=O)[C@H](C(C)C)NC1=O [SP-179] (Ac-FIDE[R8]VLMSLV[S5]EMAAA-NH2; staple 5-12) | > 700 nM |
| CC[C@H](C)[C@H](NC(=O)[C@H](Cc1ccccc1)NC(C)=O)C(=O)N[C@@H](CC(=O)O)C(=O)N[C@@H](CCC(=O)O)C(=O)N[C@]1(C)CCCCCCC=CCCC[C@@](C)(C(=O)N[C@@H](CCC(=O)O)C(=O)N[C@@H](CCSC)C(=O)N[C@@H](C)C(=O)N[C@@H](C)C(N)=O)NC(=O)[C@H](C(C)C)NC(=O)[C@H](CC(C)C)NC(=O)[C@H](CO)NC(=O)[C@H](CCSC)NC(=O)[C@H](CC(C)C)NC(=O)[C@H](C(C)C)NC1=O [SP-178] (Ac-FIDE[R8]VLMSLV[S5]EMAA-NH2; staple 5-12) | > 700 nM |

The next lines start with the values.

| IC50 | SMILES |
| --- | --- |
| > 700 nM | CCCC[C@@H]1NC(=O)[C@](C)(NC(=O)[C@@H](NC(=O)[C@H](CCC(=O)O)NC(=O)[C@H](CCC(=O)O)NC(=O)[C@H](CC(=O)O)NC(=O)[C@@H](NC(=O)[C@H](CC(N)=O)NC(=O)[C@@H](NC(=O)[C@H](CCC(N)=O)NC(=O)[C@H](CC(=O)O)NC(=O)[C@H](CC(C)C)NC(=O)[C@]2(C)CCCC=CCCC[C@](C)(NC(=O)[C@H](CCC(=O)O)NC(=O)CNC(=O)[C@H](CCC(N)=O)NC(=O)[C@H](CC(C)C)NC(=O)[C@H](CC(C)C)NC(C)=O)C(=O)N[C@@H](CC(C)C)C(=O)N[C@@H](CC(C)C)C(=O)N[C@@H](CCCNC(=N)N)C(=O)N2)C(C)C)[C@@H](C)CC)C(C)C)CCCCCCC=CCCC[C@@](C)(C(=O)NCC(N)=O)NC(=O)[C@H](CCC(=O)O)NC(=O)[C@H]([C@@H](C)CC)NC(=O)[C@H](C(C)C)NC(=O)[C@H](CC(C)C)NC(=O)[C@H](CO)NC1=O [SP-315] (Ac-LLQGE[S5]LLR[S5]LDQVNIDEEV[R8][Nle]SLVIE[S5]G-NH2; staple 6-10, 21-28) |
| > 700 nM | CCCC[C@@H]1NC(=O)[C@H](CC(C)C)NC(=O)[C@](C)(NC(=O)[C@H](CCC(=O)O)NC(=O)[C@H](CCC(=O)O)NC(=O)[C@H](CC(=O)O)NC(=O)[C@@H](NC(=O)[C@H](CC(N)=O)NC(=O)[C@@H](NC(=O)[C@H](CCC(N)=O)NC(=O)[C@]2(C)CCCC=CCCC[C@](C)(NC(=O)[C@H](CC(C)C)NC(=O)[C@H](CCC(=O)O)NC(=O)[C@H](CCC(=O)O)NC(=O)CNC(=O)[C@H](CCC(N)=O)NC(=O)[C@H](CC(C)C)NC(=O)[C@H](CC(C)C)NC(C)=O)C(=O)N[C@@H](CCCNC(=N)N)C(=O)N[C@@H](C)C(=O)N[C@@H](CC(C)C)C(=O)N2)C(C)C)[C@@H](C)CC)CCCCCCC=CCCC[C@@](C)(C(=O)N[C@@H](CCCC)C(=O)NCC(N)=O)NC(=O)[C@H]([C@@H](C)CC)NC(=O)[C@H](C(C)C)NC(=O)[C@H](CC(C)C)NC(=O)[C@H](CO)NC1=O [SP-331] (Ac-LLQGEEL[S5]RAL[S5]QVNIDEE[R8]L[Nle]SLVI[S5][Nle]G-NH2; staple 8-12, 20-27) |
| > 700 nM | CCCC[C@H](NC(=O)[C@H](CCC(=O)O)NC(=O)[C@@H](NC(=O)[C@@H](NC(=O)[C@H](CC(C)C)NC(=O)[C@]1(C)CCCC=CCCC[C@](C)(NC(=O)[C@H](CCC(=O)O)NC(=O)[C@H](CC(=O)O)NC(=O)[C@@H](NC(=O)[C@H](Cc2ccccc2)NC(=O)[C@H](CCCCN)NC(=O)[C@H](CCCCN)NC(C)=O)[C@@H](C)CC)C(=O)N[C@@H](C(C)C)C(=O)N[C@@H](CC(C)C)C(=O)N[C@@H](CCCC)C(=O)N1)C(C)C)[C@@H](C)CC)C(=O)N[C@@H](C)C(=O)N[C@@H](CC(C)C)C(=O)N[C@@H](CCCCN)C(=O)N[C@@H](CCCCN)C(N)=O [SP-137] (Ac-KKFIDE[S5]VL[Nle][S5]LVIE[Nle]ALKK-NH2; staple 7-11) |
| > 700 nM | CC[C@H](C)[C@H](NC(=O)[C@H](Cc1ccccc1)NC(C)=O)C(=O)N[C@@H](CC(=O)O)C(=O)N[C@@H](CCC(=O)O)C(=O)N[C@@]1(C)CCCC=CCCC[C@@](C)(C(=O)N[C@@H](CC(C)C)C(=O)N[C@H](C(=O)N[C@H](C(=O)N[C@@H](CCC(=O)O)C(=O)N[C@@H](CCSC)C(=O)N[C@@H](C)C(N)=O)[C@@H](C)CC)C(C)C)NC(=O)[C@H](CCSC)NC(=O)[C@H](CC(C)C)NC(=O)[C@H](C(C)C)NC1=O [SP-115] (Ac-FIDE[S5]VLM[S5]LVIEMA-NH2; staple 5-9) |
| > 700 nM | CC[C@H](C)[C@H](NC(=O)[C@H](Cc1ccccc1)NC(C)=O)C(=O)N[C@@H](CC(=O)O)C(=O)N[C@@H](CCC(=O)O)C(=O)N[C@]1(C)CCCCCCC=CCCC[C@@](C)(C(=O)N[C@@H](CCC(=O)O)C(=O)N[C@@H](CCSC)C(=O)NCC(=O)N[C@@H](CC(C)C)C(N)=O)NC(=O)[C@H](C(C)C)NC(=O)[C@H](CC(C)C)NC(=O)[C@H](CO)NC(=O)[C@H](CCSC)NC(=O)[C@H](CC(C)C)NC(=O)[C@H](C(C)C)NC1=O [SP-187] (Ac-FIDE[R8]VLMSLV[S5]EMGL-NH2; staple 5-12) |
